In ChEMBL document CHEMBL3425423, “Hydroxy tricyclic 1,5-naphthyridinone oxabicyclooctane-linked novel bacterial topoisomerase inhibitors as broad-spectrum antibacterial agents-SAR of RHS moiety (Part-3)” (Bioorg Med Chem Lett, 2015):
≈ marks a conversion by molar mass, not a printed value.

What was measured:
Streptococcus pneumoniae [1] = assay: Antibacterial activity against Streptococcus pneumoniae IID554; type: functional; settings: Streptococcus pneumoniae, IID554; read-out: MIC
Staphylococcus aureus [2] = assay: Ratio of MIC for quinolone-resistant Staphylococcus aureus MS5935 to MIC for quinolone-sensitive Staphylococcus aureus; type: functional
[3] = Half life in C57BL/6 mouse at 1 mg/kg, iv and 2 mg/kg, po; type: ADME, organism-based; settings: in vivo
Escherichia coli = assay: Antibacterial activity against Escherichia coli ATCC 25922; type: functional; settings: Escherichia coli, ATCC 25922; read-out: MIC
[4] = Volume of distribution at steady state in C57BL/6 mouse at 1 mg/kg, iv and 2 mg/kg, po; type: ADME, organism-based; settings: in vivo, read-out: Vdss
[5] = Plasma clearance in C57BL/6 mouse at 1 mg/kg, iv and 2 mg/kg, po; type: ADME, organism-based
Pseudomonas aeruginosa = assay: Antibacterial activity against Pseudomonas aeruginosa PAO1; type: functional; settings: Pseudomonas aeruginosa, PAO1; read-out: MIC
Staphylococcus aureus [6] = assay: Antibacterial activity against Staphylococcus aureus Smith; type: functional; settings: Staphylococcus aureus, Smith; read-out: MIC
Mus musculus = assay: Dose normalized AUC in C57BL/6 mouse at 1 mg/kg, iv and 2 mg/kg, po; type: ADME, organism-based; settings: in vivo
[7] = biological target: T1, Voltage-gated inwardly rectifying potassium channel KCNH2 (Homo sapiens, UniProt Q12809); assay: Displacement of MK499 from human ERG
T1 sequence (Q12809 whole entry): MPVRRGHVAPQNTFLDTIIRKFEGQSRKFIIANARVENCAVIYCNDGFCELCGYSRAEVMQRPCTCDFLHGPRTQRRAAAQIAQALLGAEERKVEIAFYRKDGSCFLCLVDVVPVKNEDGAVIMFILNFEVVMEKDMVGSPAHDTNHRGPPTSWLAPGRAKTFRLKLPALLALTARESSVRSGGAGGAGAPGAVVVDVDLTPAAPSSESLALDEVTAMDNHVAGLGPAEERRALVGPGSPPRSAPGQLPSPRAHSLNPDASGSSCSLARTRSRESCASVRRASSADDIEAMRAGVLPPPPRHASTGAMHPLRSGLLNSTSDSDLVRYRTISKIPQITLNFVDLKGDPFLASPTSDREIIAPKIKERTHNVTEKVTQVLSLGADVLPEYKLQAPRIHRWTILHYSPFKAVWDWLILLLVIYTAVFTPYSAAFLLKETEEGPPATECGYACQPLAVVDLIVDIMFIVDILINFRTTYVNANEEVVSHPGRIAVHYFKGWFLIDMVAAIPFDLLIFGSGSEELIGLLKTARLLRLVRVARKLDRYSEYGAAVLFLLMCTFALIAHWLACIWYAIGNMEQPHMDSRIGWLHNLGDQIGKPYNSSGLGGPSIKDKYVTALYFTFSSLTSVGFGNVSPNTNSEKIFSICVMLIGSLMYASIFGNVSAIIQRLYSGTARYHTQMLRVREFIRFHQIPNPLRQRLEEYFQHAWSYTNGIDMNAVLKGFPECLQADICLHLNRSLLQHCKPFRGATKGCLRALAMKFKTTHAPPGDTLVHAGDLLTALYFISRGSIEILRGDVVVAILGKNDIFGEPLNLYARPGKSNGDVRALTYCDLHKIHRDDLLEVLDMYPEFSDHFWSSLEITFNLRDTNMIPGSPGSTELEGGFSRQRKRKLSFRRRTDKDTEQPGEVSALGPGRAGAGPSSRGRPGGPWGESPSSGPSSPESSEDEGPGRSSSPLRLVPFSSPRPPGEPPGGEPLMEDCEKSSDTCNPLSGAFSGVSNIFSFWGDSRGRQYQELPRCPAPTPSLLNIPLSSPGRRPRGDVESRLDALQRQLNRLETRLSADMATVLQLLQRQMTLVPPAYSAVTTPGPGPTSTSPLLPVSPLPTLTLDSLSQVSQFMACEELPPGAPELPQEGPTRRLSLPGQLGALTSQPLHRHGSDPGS

Enterococcus faecalis = assay: Antibacterial activity against Enterococcus faecalis ATCC 29212; type: functional; settings: Enterococcus faecalis, ATCC 29212; read-out: MIC
Staphylococcus aureus [8] = assay: Antibacterial activity against Staphylococcus aureus Smith infected in po dosed CD1 mouse administered at 0.5 hrs post infection; type: functional
Enterococcus faecium = assay: Antibacterial activity against VanA-type vancomycin-resistant Enterococcus faecium A2373; type: functional; settings: Enterococcus faecium, A2373; read-out: MIC
Staphylococcus aureus [9] = assay: Antibacterial activity against Staphylococcus aureus Smith infected in iv dosed CD1 mouse administered at 0.5 hrs post infection; type: functional
[10] = Oral bioavailability in C57BL/6 mouse at 2 mg/kg; type: ADME, organism-based; settings: in vivo
Acinetobacter baumannii = assay: Antibacterial activity against Acinetobacter baumannii IID876; type: functional; settings: Acinetobacter baumannii, IID876; read-out: MIC
[11] = biological target: T1, Voltage-gated inwardly rectifying potassium channel KCNH2; assay: Inhibition of human ERG expressed in CHO cells measured over 5 mins by patch clamp assay
Haemophilus influenzae = assay: Antibacterial activity against Haemophilus influenzae ATCC 49247; type: functional; settings: Haemophilus influenzae, ATCC 49247; read-out: MIC
Moraxella catarrhalis = assay: Antibacterial activity against Moraxella catarrhalis ATCC 25238; type: functional; settings: Moraxella catarrhalis, ATCC 25238; read-out: MIC
Staphylococcus aureus [12] = assay: Antibacterial activity against Staphylococcus aureus Smith infected in po dosed ICR mouse assessed as survival rate administered at 1 hr post infection measured over 7 days; type: functional
Staphylococcus aureus [13] = assay: Antibacterial activity against Staphylococcus aureus Smith infected in iv dosed ICR mouse assessed as survival rate administered at 1 hr post infection measured over 7 days; type: functional
Streptococcus pneumoniae [14] = assay: Antibacterial activity against Streptococcus pneumoniae; type: functional
Staphylococcus aureus [15] = assay: Antibacterial activity against Staphylococcus aureus; type: functional
Staphylococcus aureus [16] = assay: Antibacterial activity against quinolone-sensitive Staphylococcus aureus MS5935
Staphylococcus aureus [17] = assay: Antibacterial activity against quinolone-resistant Staphylococcus aureus MS5935; type: functional

| Compound | MIC (Streptococcus pneumoniae [1]) | Ratio (Staphylococcus aureus [2]) | half-life [3] | MIC (Escherichia coli) | Vd [4] | clearance [5] | MIC (Pseudomonas aeruginosa) | MIC (Staphylococcus aureus [6]) | AUC/dose (Mus musculus) | IC50 [7] | MIC (Enterococcus faecalis) | MIC (Enterococcus faecium) | ED90 (Staphylococcus aureus [9]) | bioavailability [10] | MIC (Acinetobacter baumannii) | IC50 [11] | MIC (Haemophilus influenzae) | MIC (Moraxella catarrhalis) | other results |
| --- | --- | --- | --- | --- | --- | --- | --- | --- | --- | --- | --- | --- | --- | --- | --- | --- | --- | --- | --- |
| O=C1COc2cc(F)c(CNC34CCC(C[C@]5(O)Cn6c(=O)ccc7ncc(F)c5c76)(CC3)OC4)nc2N1 | 2 µg/mL (≈ 3.81 µM) | <4 | 1.7 h | 8 µg/mL (≈ 15.2 µM) | 1.3 L/kg | 15 mL/min/kg | 16 µg/mL (≈ 30.4 µM) | 0.5 µg/mL (≈ 0.951 µM) | 2.1 µM·h/mg/kg | > 60 µM | 4 µg/mL (≈ 7.61 µM) | 16 µg/mL (≈ 30.4 µM) | 12 mg/kg | 39% | 8 µg/mL (≈ 15.2 µM) | 333 µM | – | – | ED90 (Staphylococcus aureus [8]): 15 mg/kg |
| O=C1COc2cc(Cl)c(CNC34CCC(C[C@]5(O)Cn6c(=O)ccc7ncc(F)c5c76)(CC3)OC4)nc2N1 | 2 µg/mL (≈ 3.69 µM) | <4 | 3.5 h | 8 µg/mL (≈ 14.8 µM) | 7 L/kg | 38 mL/min/kg | 16 µg/mL (≈ 29.5 µM) | 0.25 µg/mL (≈ 0.461 µM) | 0.7 µM·h/mg/kg | 27.7 µM | 8 µg/mL (≈ 14.8 µM) | 16 µg/mL (≈ 29.5 µM) | 24 mg/kg | 51% | 2 µg/mL (≈ 3.69 µM) | 126 µM | – | – | ED90 (Staphylococcus aureus [8]): 29 mg/kg |
| CCc1cc2c(nc1CNC13CCC(C[C@]4(O)Cn5c(=O)ccc6ncc(F)c4c65)(CC1)OC3)NC(=O)CO2 | 32 µg/mL (≈ 59.7 µM) | <4 | – | 16 µg/mL (≈ 29.9 µM) | – | – | 32 µg/mL (≈ 59.7 µM) | 8 µg/mL (≈ 14.9 µM) | – | > 60 µM | 32 µg/mL (≈ 59.7 µM) | 32 µg/mL (≈ 59.7 µM) | – | – | 1 µg/mL (≈ 1.87 µM) | > 60 µM | 16 µg/mL (≈ 29.9 µM) | 1 µg/mL (≈ 1.87 µM) | – |
| O=c1ccc2ncc(F)c3c2n1C[C@@]3(O)CC12CCC(NCc3cc4c(cn3)OCCO4)(CC1)CO2 | 2 µg/mL (≈ 4.04 µM) | – | 2 h | 16 µg/mL (≈ 32.4 µM) | 17 L/kg | 47 mL/min/kg | 16 µg/mL (≈ 32.4 µM) | 0.5 µg/mL (≈ 1.01 µM) | 0.5 µM·h/mg/kg | – | 8 µg/mL (≈ 16.2 µM) | 16 µg/mL (≈ 32.4 µM) | 12 mg/kg | 60% | 8 µg/mL (≈ 16.2 µM) | – | – | – | ED50 (Staphylococcus aureus [12]): 5.1 mg/kg; ED50 (Staphylococcus aureus [13]): 11 mg/kg |
| O=c1ccc2ncc(F)c3c2n1C[C@@]3(O)CC12CCC(NCc3cc4c(cn3)OCCS4(=O)=O)(CC1)CO2 | 4 µg/mL (≈ 7.37 µM) | <4 | – | 32 µg/mL (≈ 59 µM) | – | – | 32 µg/mL (≈ 59 µM) | 8 µg/mL (≈ 14.7 µM) | – | > 60 µM | 32 µg/mL (≈ 59 µM) | 32 µg/mL (≈ 59 µM) | – | – | 32 µg/mL (≈ 59 µM) | > 60 µM | 32 µg/mL (≈ 59 µM) | 32 µg/mL (≈ 59 µM) | – |
| O=c1ccc2ncc(F)c3c2n1C[C@@]3(O)CC12CCC(NCc3cc4c(cn3)S(=O)(=O)CCO4)(CC1)CO2 | 32 µg/mL (≈ 59 µM) | <4 | – | 32 µg/mL (≈ 59 µM) | – | – | 32 µg/mL (≈ 59 µM) | 8 µg/mL (≈ 14.7 µM) | – | > 60 µM | 32 µg/mL (≈ 59 µM) | 32 µg/mL (≈ 59 µM) | – | – | 32 µg/mL (≈ 59 µM) | > 60 µM | 32 µg/mL (≈ 59 µM) | 32 µg/mL (≈ 59 µM) | – |
| O=c1ccc2ncc(=O)n3c2n1C[C@H]3CN1CCC(NCc2cc3c(cn2)OCCC3)CC1 [GEPOTIDACIN] | – | – | – | – | – | – | – | – | – | – | – | – | – | – | – | – | – | – | MIC90 (Streptococcus pneumoniae [14]): 0.25 µg/mL (≈ 0.557 µM); MIC90 (Staphylococcus aureus [15]): 0.5 µg/mL (≈ 1.11 µM) |
| C[C@H]1COc2c(N3CCN(C)CC3)c(F)cc3c(=O)c(C(=O)O)cn1c23.C[C@H]1COc2c(N3CCN(C)CC3)c(F)cc3c(=O)c(C(=O)O)cn1c23.O [LEVOFLOXACIN] | – | >64 | – | – | – | – | – | – | – | – | – | – | – | – | – | – | – | – | MIC (Staphylococcus aureus [16]): 0.25 µg/mL; MIC (Staphylococcus aureus [17]): > 16 µg/mL |
